# Experimental data: patent publication US6358885B1, “Substituted phenylheterocyclic herbicides” (Mississippi State University, priority 1992, dated 2002)
# Tests used:
# lambsquarters = experiment: Test C preemergence/postemergence greenhouse plant response rating 0 to 100; format: in vivo, Chenopodium album; settings: POSTEMERGENCE; for Plant response rating Lambsquarters: 0 to 100 scale
# Summary of the method: (§1)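 Compounds in non-phytotoxic solvent went onto sandy loam before emergence (seeded one day earlier) or onto plants at the one-to-four leaf stage. Duck salad was treated via flood water (~2.5 cm, maintained) over silt loam.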
# rape = experiment: Test B preemergence/postemergence greenhouse plant response rating 0 to 10; format: in vivo, Brassica napus; settings: 0 to 10 scale
# Summary of the method: (§2)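 Postemergence treatment of plants two to eighteen cm tall ran alongside preemergence treatment of planted seed, each using compound in a non-phytotoxic solvent.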
# umbrella sedge = experiment: Test C flood test plant response rating 0 to 100; format: in vivo, Cyperus difformis; settings: for Plant response rating Umbrella sedge: flood test species listed under POSTEMERGENCE, 0 to 100 scale
# Summary of the method: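 Compounds in non-phytotoxic solvent applied preemergence to sandy loam one day after planting, postemergence at the 1–4 leaf stage, or to ~2.5 cm floodwater over silt loam.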
# cheatgrass = experiment: Test B preemergence/postemergence greenhouse plant response rating 0 to 10; format: in vivo, Bromus secalinus; settings: 0 to 10 scale
# Summary of the method: as §2
# pigweed = experiment: Test C preemergence/postemergence greenhouse plant response rating 0 to 100; format: in vivo, Amaranthusretroflexus; settings: POSTEMERGENCE; for Plant response rating Pigweed: 0 to 100 scale
# Summary of the method: as §1
# crabgrass = experiment: Test B preemergence/postemergence greenhouse plant response rating 0 to 10; format: in vivo, Digitaria spp.; settings: 0 to 10 scale
# Summary of the method: as §2
# soybean = experiment: Test C preemergence/postemergence greenhouse plant response rating 0 to 100; format: in vivo, Glycine max; settings: POSTEMERGENCE; for Plant response rating, Soybean: 0 to 100 scale
# Summary of the method: as §1
# barley = experiment: as above; format: in vivo, Hordeum vulgare; settings: POSTEMERGENCE; for Plant response rating Barley Igri: 0 to 100 scale
# Summary of the method: as §1
# velvetleaf = experiment: as above; format: in vivo, Abutilon theophrasti; settings: POSTEMERGENCE; for Plant response rating, Velvetleaf: 0 to 100 scale
# Summary of the method: as §1
# duck salad = experiment: Test C flood test plant response rating 0 to 100; format: in vivo, Heteranthera limosa; settings: for Plant response rating Duck salad: flood test species listed under POSTEMERGENCE, 0 to 100 scale
# Summary of the method: as §1
# giant foxtail [1] = experiment: Test C preemergence/postemergence greenhouse plant response rating 0 to 100; format: in vivo, Setaria faberii; settings: POSTEMERGENCE; for Plant response rating, Giant foxtail: 0 to 100 scale
# Summary of the method: as §1
# morningglory = experiment: Test B preemergence/postemergence greenhouse plant response rating 0 to 10; format: in vivo, Ipomoea hederacea; settings: 0 to 10 scale
# Summary of the method: as §2
# chickweed = experiment: Test C preemergence/postemergence greenhouse plant response rating 0 to 100; format: in vivo, Stellaria media; settings: POSTEMERGENCE; for Plant response rating, Chickweed: 0 to 100 scale
# Summary of the method: as §1
# cotton [2] = experiment: Test B preemergence/postemergence greenhouse plant response rating 0 to 10; format: in vivo, Gossypium hirsutum; settings: 0 to 10 scale
# Summary of the method: as §2
# bedstraw = experiment: as above; format: in vivo, Galium aparine; settings: 0 to 10 scale
# Summary of the method: as §2
# giant foxtail [3] = experiment: as above; format: in vivo, Setaria faberii; settings: 0 to 10 scale
# Summary of the method: as §2
# cotton [4] = experiment: Test C preemergence/postemergence greenhouse plant response rating 0 to 100; format: in vivo, Gossypium hirsutum; settings: POSTEMERGENCE; for Plant response rating, Cotton: 0 to 100 scale
# Summary of the method: as §1
# cocklebur = experiment: Test B preemergence/postemergence greenhouse plant response rating 0 to 10; format: in vivo, Xanthium pensylvanicum; settings: 0 to 10 scale
# Summary of the method: as §2
# [5] = POSTEMERGENCE section, flood test, Rate 4 g/ha
# [6] = Rate 16 g/ha, under POSTEMERGENCE head (flood test species)
smiles,measurement,setting,value
CCC(C)Oc1cc(-c2nn3c(c2Cl)CCCC3)c(F)cc1Cl (centres unmarked) [Compound 48],Plant response rating Lambsquarters,lambsquarters; 62 g/ha,100
same,Plant response rating Lambsquarters,lambsquarters; 250 g/ha,100
same,"Plant response rating (0 to 100), Lambsquarters",lambsquarters; Rate 4 g/ha,60
same,"Plant response rating (0 to 100), Lambsquarters",lambsquarters; Rate 16 g/ha,60
same,"Plant response rating, Rape","rape; POSTEMERGENCE, Rate 50 g/ha",8
same,"Plant response rating, Rape","rape; PREEMERGENCE, Rate 50 g/ha",4
same,"Plant response rating, Rape","rape; Rate 200 g/ha, POSTEMERGENCE",6
same,"Plant response rating, Rape","rape; Rate 200 g/ha, PREEMERGENCE",9
same,"Plant response rating (0 to 100), Umbrella sedge",umbrella sedge; [5],10
same,"Plant response rating (0 to 100), Umbrella sedge",umbrella sedge; [6],10
same,Plant response rating Umbrella sedge,umbrella sedge; 62 g/ha,40
same,Plant response rating Umbrella sedge,umbrella sedge; 250 g/ha,70
same,"Plant response rating, Cheatgrass","cheatgrass; POSTEMERGENCE, Rate 50 g/ha",6
same,"Plant response rating, Cheatgrass","cheatgrass; POSTEMERGENCE, Rate 200 g/ha",7
same,"Plant response rating, Cheatgrass","cheatgrass; PREEMERGENCE, Rate 50 g/ha",0
same,"Plant response rating, Cheatgrass","cheatgrass; Rate 200 g/ha, PREEMERGENCE",2
same,Plant response rating Pigweed,pigweed; 62 g/ha,100
same,Plant response rating Pigweed,pigweed; 250 g/ha,100
same,"Plant response rating (0 to 100), Pigweed",pigweed; Rate 4 g/ha,80
same,"Plant response rating (0 to 100), Pigweed",pigweed; Rate 16 g/ha,90
same,"Plant response rating, Crabgrass","crabgrass; POSTEMERGENCE, Rate 50 g/ha",8
same,"Plant response rating, Crabgrass","crabgrass; POSTEMERGENCE, Rate 200 g/ha",9
same,"Plant response rating, Crabgrass","crabgrass; PREEMERGENCE, Rate 50 g/ha",2
same,"Plant response rating, Crabgrass","crabgrass; Rate 200 g/ha, PREEMERGENCE",9
same,"Plant response rating, Soybean",soybean; 62 g/ha,40
same,"Plant response rating, Soybean",soybean; 250 g/ha,50
same,"Plant response rating (0 to 100), Soybean",soybean; Rate 4 g/ha,30
same,"Plant response rating (0 to 100), Soybean",soybean; Rate 16 g/ha,30
same,Plant response rating Barley Igri,barley; 62 g/ha,30
same,Plant response rating Barley Igri,barley; 250 g/ha,40
same,"Plant response rating (0 to 100), Barley Igri",barley; Rate 4 g/ha,10
same,"Plant response rating (0 to 100), Barley Igri",barley; Rate 16 g/ha,20
same,"Plant response rating, Velvetleaf",velvetleaf; 62 g/ha,90
same,"Plant response rating, Velvetleaf",velvetleaf; 250 g/ha,90
same,"Plant response rating (0 to 100), Velvetleaf",velvetleaf; Rate 4 g/ha,30
same,"Plant response rating (0 to 100), Velvetleaf",velvetleaf; Rate 16 g/ha,80
same,"Plant response rating (0 to 100), Duck salad",duck salad; [5],0
same,"Plant response rating (0 to 100), Duck salad",duck salad; [6],10
same,Plant response rating Duck salad,duck salad; 62 g/ha,60
same,Plant response rating Duck salad,duck salad; 250 g/ha,80
same,"Plant response rating, Giant foxtail",giant foxtail [1]; 62 g/ha,40
same,"Plant response rating, Giant foxtail",giant foxtail [1]; 250 g/ha,90
same,"Plant response rating (0 to 100), Giant foxtail",giant foxtail [1]; Rate 4 g/ha,20
same,"Plant response rating (0 to 100), Giant foxtail",giant foxtail [1]; Rate 16 g/ha,30
same,"Plant response rating, Morningglory","morningglory; POSTEMERGENCE, Rate 50 g/ha",10
same,"Plant response rating, Morningglory","morningglory; PREEMERGENCE, Rate 50 g/ha",1
same,"Plant response rating, Morningglory","morningglory; Rate 200 g/ha, POSTEMERGENCE",10
same,"Plant response rating, Morningglory","morningglory; Rate 200 g/ha, PREEMERGENCE",3
same,"Plant response rating, Chickweed",chickweed; 62 g/ha,60
same,"Plant response rating, Chickweed",chickweed; 250 g/ha,80
same,"Plant response rating (0 to 100), Chickweed",chickweed; Rate 4 g/ha,10
same,"Plant response rating (0 to 100), Chickweed",chickweed; Rate 16 g/ha,30
same,"Plant response rating, Cotton","cotton [2]; POSTEMERGENCE, Rate 50 g/ha",10
same,"Plant response rating, Cotton","cotton [2]; POSTEMERGENCE, Rate 200 g/ha",10
same,"Plant response rating, Cotton","cotton [2]; PREEMERGENCE, Rate 50 g/ha",0
same,"Plant response rating, Cotton","cotton [2]; Rate 200 g/ha, PREEMERGENCE",9
same,"Plant response rating, Bedstraw","bedstraw; POSTEMERGENCE, Rate 50 g/ha",9
same,"Plant response rating, Bedstraw","bedstraw; POSTEMERGENCE, Rate 200 g/ha",9
same,"Plant response rating, Bedstraw","bedstraw; PREEMERGENCE, Rate 50 g/ha",3
same,"Plant response rating, Bedstraw","bedstraw; Rate 200 g/ha, PREEMERGENCE",9
same,"Plant response rating, Giant foxtail","giant foxtail [3]; POSTEMERGENCE, Rate 50 g/ha",6
same,"Plant response rating, Giant foxtail","giant foxtail [3]; PREEMERGENCE, Rate 50 g/ha",6
same,"Plant response rating, Giant foxtail","giant foxtail [3]; Rate 200 g/ha, POSTEMERGENCE",9
same,"Plant response rating, Giant foxtail","giant foxtail [3]; Rate 200 g/ha, PREEMERGENCE",9
same,"Plant response rating, Cotton",cotton [4]; 62 g/ha,100
same,"Plant response rating, Cotton",cotton [4]; 250 g/ha,100
same,"Plant response rating (0 to 100), Cotton",cotton [4]; Rate 4 g/ha,90
same,"Plant response rating (0 to 100), Cotton",cotton [4]; Rate 16 g/ha,100
same,"Plant response rating, Cocklebur","cocklebur; POSTEMERGENCE, Rate 50 g/ha",7
same,"Plant response rating, Cocklebur","cocklebur; POSTEMERGENCE, Rate 200 g/ha",9
same,"Plant response rating, Cocklebur","cocklebur; Rate 200 g/ha, PREEMERGENCE",0
